Data as given in patent publication US20220315621A1, “COMPOSITIONS AND METHODS FOR TREATING CNS DISORDERS” (priority 2017, published 2022).
Read-outs that look alike come from different tables or passages of the source.

Target: TBPS binding
Experiment: Steroid inhibition of TBPS binding
[1] = Table II-2, read-out: TBPS IC50 (μm)
[2] = Table III-1, read-out: TBPS IC50
[3] = Table IV-2, read-out: TBPS IC50

Row | Compound | IC50 [1] [nM] | other results
1 | C[C@@]1(O)CCC[C@H]2[C@H](CC[C@@H]3[C@@H]2CC[C@]2(C)[C@@H](C(=O)Cn4cc(C#N)cn4)CC[C@@H]32)C1 [II-E10a, 1-(2-((1S,3aS,3bR,5aR,7R,10aS,10bR,12aS)-7-hydroxy-7,12a-dimethyloctadecahydrocyclohepta[a]cyclopenta[f]naphthalen-1-yl)-2-oxoethyl)-1H-pyrazole-4-carbonitrile] | 10 to 100 | 
2 | C[C@]1(O)CCC2=CC[C@H]3[C@@H]4CC[C@H](C(=O)Cn5cc(C#N)cn5)[C@@]4(C)CC[C@@H]3[C@@]2(C)CC1 [II-F3, 1-(2-((1S,3aS,3bS,8S,10aR,10bS,12aS)-8-hydroxy-8,10a,12a-trimethyl-1,2,3,3a,3b,4,6,7,8,9,10,10a,10b,11,12,12a-hexadecahydrocyclohepta[a]cyclopenta[f]naphthalen-1-yl)-2-oxoethyl)-1H-pyrazole-4-carbonitrile] | < 10 | 
3 | Cc1nnn(CC(=O)[C@H]2CC[C@H]3[C@@H]4CC=C5CC[C@](C)(O)CC[C@]5(C)[C@H]4CC[C@]23C)n1 [II-F6, 1-((1S,3aS,3bS,8S,10aR,10bS,12aS)-8-hydroxy-8,10a,12a-trimethyl-1,2,3,3a,3b,4,6,7,8,9,10,10a,10b,11,12,12a-hexadecahydrocyclohepta[a]cyclopenta[f]naphthalen-1-yl)-2-(5-methyl-2H-tetrazol-2-yl)ethan-1-one] | 10 to 100 | 
4 | Cc1nnnn1CC(=O)[C@H]1CC[C@H]2[C@@H]3CC=C4CC[C@](C)(O)CC[C@]4(C)[C@H]3CC[C@]12C [II-F7, 1-((1S,3aS,3bS,8S,10aR,10bS,12aS)-8-hydroxy-8,10a,12a-trimethyl-1,2,3,3a,3b,4,6,7,8,9,10,10a,10b,11,12,12a-hexadecahydrocyclohepta[a]cyclopenta[f]naphthalen-1-yl)-2-(5-methyl-1H-tetrazol-1-yl)ethan-1-one] | 10 to 100 | 
5 | CC(=O)[C@H]1CC[C@H]2[C@@H]3CC[C@@H]4CC[C@](C)(O)CC[C@@H]4[C@H]3CC[C@]12C [II-F8, 1-((1S,3aS,3bR,5aR,8S,10aS,10bR,12aS)-8-hydroxy-8,12a-dimethyloctadecahydrocyclohepta[a]cyclopenta[f]naphthalen-1-yl)ethan-1-one] | 100 to 1000 | 
6 | C[C@]1(O)CC[C@H]2CC[C@@H]3[C@H](CC[C@]4(C)[C@@H](C(=O)Cn5cc(C#N)cn5)CC[C@@H]34)[C@H]2CC1 [II-F11, 1-(2-((1S,3aS,3bR,5aR,8S,10aS,10bR,12aS)-8-hydroxy-8,12a-dimethyloctadecahydrocyclohepta[a]cyclopenta[f]naphthalen-1-yl)-2-oxoethyl)-1H-pyrazole-4-carbonitrile] | 100 to 1000 | 
7 | Cc1nnn(CC(=O)[C@H]2CC[C@H]3[C@@H]4CC[C@@H]5CC[C@](C)(O)CC[C@@H]5[C@H]4CC[C@]23C)n1 [II-F12, 1-((1S,3aS,3bR,5aR,8S,10aS,10bR,12aS)-8-hydroxy-8,12a-dimethyloctadecahydrocyclohepta[a]cyclopenta[f]naphthalen-1-yl)-2-(5-methyl-2H-tetrazol-2-yl)ethan-1-one] | 100 to 1000 | 
8 | Cc1nnnn1CC(=O)[C@H]1CC[C@H]2[C@@H]3CC[C@@H]4CC[C@](C)(O)CC[C@@H]4[C@H]3CC[C@]12C [II-F13, 1-((1S,3aS,3bR,5aR,8S,10aS,10bR,12aS)-8-hydroxy-8,12a-dimethyloctadecahydrocyclohepta[a]cyclopenta[f]naphthalen-1-yl)-2-(5-methyl-1H-tetrazol-1-yl)ethan-1-one] | 1000 to 10000 | 
9 | CC(=O)[C@H]1CC[C@H]2[C@@H]3CC[C@@H]4C[C@](C)(O)C[C@@H]4[C@H]3CC[C@]12C [II-G8, 1-((1S,3aS,3bR,5aR,7S,8aS,8bR,10aS)-7-hydroxy-7,10a-dimethylhexadecahydrodicyclopenta[a,f]naphthalen-1-yl)ethan-1-one] | 100 to 1000 | 
10 | C[C@]1(O)C[C@H]2CC[C@@H]3[C@H](CC[C@]4(C)[C@@H](C(=O)Cn5cc(C#N)cn5)CC[C@@H]34)[C@H]2C1 [II-G10] | 100 to 1000 | 
11 | C[C@]1(O)C[C@H]2CC[C@@H]3[C@H](CC[C@]4(C)[C@@H](C(=O)Cn5nccn5)CC[C@@H]34)[C@H]2C1 [II-G11, 1-((1S,3aS,3bR,5aR,7S,8aS,8bR,10aS)-7-hydroxy-7,10a-dimethylhexadecahydrodicyclopenta[a,f]naphthalen-1-yl)-2-(2H-1,2,3-triazol-2-yl)ethan-1-one] | 100 to 1000 | 
12 | C[C@]1(O)C[C@H]2CC[C@@H]3[C@H](CC[C@]4(C)[C@@H](C(=O)Cn5ccnn5)CC[C@@H]34)[C@H]2C1 [II-G12, 1-((1S,3aS,3bR,5aR,7S,8aS,8bR,10aS)-7-hydroxy-7,10a-dimethylhexadecahydrodicyclopenta[a,f]naphthalen-1-yl)-2-(1H-1,2,3-triazol-1-yl)ethan-1-one] | 100 to 1000 | 
13 | CC(=O)[C@H]1CC[C@H]2[C@@H]3CC[C@@H]4[C@H](CC[C@@]4(C)O)[C@H]3CC[C@]12C [II-H11, 1-((1S,3aS,3bR,5aR,6R,8aR,8bS,10aS)-6-hydroxy-6,10a-dimethylhexadecahydrodicyclopenta[a,f]naphthalen-1-yl)ethan-1-one] | 1000 to 10000 | 
14 | C[C@]12CC[C@@H]3[C@H]4CC[C@@](C)(O)[C@@H]4CC[C@H]3[C@@H]1CC[C@@H]2C(=O)Cn1cc(C#N)cn1 [II-H13, 1-(2-((1S,3aS,3bR,5aR,6R,8aR,8bS,10aS)-6-hydroxy-6,10a-dimethylhexadecahydrodicyclopenta[a,f]naphthalen-1-yl)-2-oxoethyl)-1H-pyrazole-4-carbonitrile] | 1000 to 10000 | 
15 | C[C@]12CC[C@@H]3[C@H]4CC[C@](C)(O)[C@@H]4CC[C@H]3[C@@H]1CC[C@@H]2C(=O)Cn1cc(C#N)cn1 [II-H19, 1-(2-((1S,3aS,3bR,5aR,6S,8aR,8bS,10aS)-6-hydroxy-6,10a-dimethylhexadecahydrodicyclopenta[a,f]naphthalen-1-yl)-2-oxoethyl)-1H-pyrazole-4-carbonitrile] | 1000 to 10000 | 
16 | COC[C@]1(O)C[C@H]2CC[C@@H]3[C@H](CC[C@]4(C)[C@@H](C(C)=O)CC[C@@H]34)[C@H]2C1 [II-J9, 1-((1S,3aS,3bR,5aR,7S,8aS,8bR,10aS)-7-hydroxy-7-(methoxymethyl)-10a-methylhexadecahydrodicyclopenta[a,f]naphthalen-l-yl)ethan-1-one] | 100 to 1000 | 
17 | COC[C@]1(O)C[C@H]2CC[C@@H]3[C@H](CC[C@]4(C)[C@@H](C(=O)Cn5cc(C#N)cn5)CC[C@@H]34)[C@H]2C1 [II-J11, 1-(2-((1S,3aS,3bR,5aR,7S,8aS,8bR,10aS)-7-hydroxy-7-(methoxymethyl)-10a-methylhexadecahydrodicyclopenta[a,f]naphthalen-1-yl)-2-oxoethyl)-1H-pyrazole-4-carbonitrile] | 100 to 1000 | 
18 | CC(=O)[C@H]1CC[C@H]2[C@@H]3CCC[C@H]4C[C@](C)(O)CC[C@@H]4[C@H]3CC[C@]12C [III-A13, 1-((1S,3aS,3bR,6aS,8R,10aS,10bR,12aS)-8-hydroxy-8,12a-dimethyloctadecahydrobenzo[3,4]cyclohepta[1,2-e]inden-1-yl)ethan-1-one] |  | IC50 [2]: 1000 to 10000 nM
19 | C[C@@]1(O)CC[C@H]2[C@@H](CCC[C@@H]3[C@@H]2CC[C@]2(C)[C@@H](C(=O)Cn4cc(C#N)cn4)CC[C@@H]32)C1 [III-A15, 1-(2-((1S,3aS,3bR,6aS,8R,10aS,10bR,12aS)-8-hydroxy-8,12a-dimethyloctadecahydrobenzo[3,4]cyclohepta[1,2-e]inden-1-yl)-2-oxoethyl)-1H-pyrazole-4-carbonitrile] |  | IC50 [2]: 100 to 1000 nM
20 | C[C@@]1(O)CC[C@H]2[C@H](C[C@@H]3[C@@H]2CC[C@]2(C)[C@@H](C(=O)Cn4cc(C#N)cn4)CC[C@@H]32)C1 [IV-A16, 1-(2-((3S,3aS,5aR,5bS,8R,9aR,10aR,10bS)-8-hydroxy-3a,8-dimethylhexadecahydrocyclopenta[a]fluoren-3-yl)-2-oxoethyl)-1H-pyrazole-4-carbonitrile] |  | IC50 [3]: 10 to 100 nM
21 | CC(=O)[C@H]1CC[C@H]2[C@@H]3C[C@H]4C[C@](C)(O)CC[C@@H]4[C@H]3CC[C@]12C [IV-B7, 1-((3S,3aS,5aR,5bS,8R,9aS,10aR,10bS)-8-hydroxy-3a,8-dimethylhexadecahydrocyclopenta[a]fluoren-3-yl)ethan-1-one] |  | IC50 [3]: 10 to 100 nM
22 | C[C@@]1(O)CC[C@H]2[C@@H](C[C@@H]3[C@@H]2CC[C@]2(C)[C@@H](C(=O)Cn4cc(C#N)cn4)CC[C@@H]32)C1 [IV-B9, 1-(2-((3S,3aS,5aR,5bS,8R,9aS,10aR,10bS)-8-hydroxy-3a,8-dimethylhexadecahydrocyclopenta[a]fluoren-3-yl)-2-oxoethyl)-1H-pyrazole-4-carbonitrile] |  | IC50 [3]: 10 to 100 nM
23 | CC(=O)[C@H]1CC[C@H]2[C@@H]3CC[C@H]4C[C@](C)(O)CC[C@]4(C)[C@H]3CCC[C@]12C [V-A8, 1-((3aS,4S,6aS,6bR,8aS,10R,12aS,12bS)-10-hydroxy-3a,10,12a-trimethyloctadecahydronaphtho[2,1-e]azulen-4-yl)ethan-1-one] |  | IC50 (Table V-2, read-out: TBPS IC50): 100 to 1000 nM
24 | C[C@@]1(O)CC[C@@]2(C)[C@@H](CC[C@@H]3[C@@H]2CCC[C@]2(C)[C@@H](C(=O)Cn4cc(C#N)cn4)CC[C@@H]32)C1 [V-A10, 1-(2-((3aS,4S,6aS,6bR,8aS,10R,12aS,12bS)-10-hydroxy-3a,10,12a-trimethyloctadecahydronaphtho[2,1-e]azulen-4-yl)-2-oxoethyl)-1H-pyrazole-4-carbonitrile] |  | IC50 (Table V-2, read-out: TBPS IC50): 100 to 1000 nM
